Assay results reported in article PMC3662833 (Journal of molecular biology, 2011).

Tests used:
Unmodified ASL^Lys3UUU = assay: FITC-peptide fluorescence quenching titration with ASL; assay type: binding, human; conditions: in words; for interaction with unmodified ASL^Lys3UUU: FITC-peptide fluorescence quenching
[1] = in words
ASL^Val3UAC-m^6A37 = assay: FITC-peptide fluorescence quenching titration with ASL; assay type: binding, E. coli; conditions: in words
unmodified hASL^Lys3UUU = assay: ESI-MS complex formation; assay type: binding, human; conditions: preliminary, data not shown, in words
E. coli ASL^Val3UAC = assay: ESI-MS complex formation; assay type: binding; conditions: peptide in five-fold excess, preliminary, data not shown
Peptide structure by CD = assay type: physicochemical; conditions: in words

AGPVPLHSLSYYYNQ [Peptide P31, reference compound]
RNA binding (control peptide) (Unmodified ASL^Lys3UUU; control used as a baseline, ASL not specified, data not shown): non-RNA binding

HRGYCRDRWNCGEYF [Peptide P15]
solubility [1]: lacked the solubility required of the assay

PHRQCSAPAKSCKILP [Peptide P17]
interaction with unmodified ASL^Lys3UUU (Unmodified ASL^Lys3UUU): little to no interaction

RVTHHAFLGAHRTVG [Peptide P6]
interaction with unmodified ASL^Lys3UUU (Unmodified ASL^Lys3UUU): little to no interaction
binding of ASL^Val3UAC-m^6A37 (ASL^Val3UAC-m^6A37): did not bind
RNA bound by P6 (unmodified hASL^Lys3UUU): small amounts
RNA in complex with P6 (E. coli ASL^Val3UAC): 50%
structure as determined by CD (Peptide structure by CD): lack of structure
